Source: ChEMBL document CHEMBL1201862, “PubChem BioAssay data set” (2004)
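96-well plates; 48 h exposure; 5 concentrations. Endpoints by linear interpolation between flanking doses. Not reached: highest tested concentration assigned. GI50 marks 50% less growth.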 Calls of active or inactive are those of the source. Cut-off read from the data, not from the text of the source: active = GI50 up to about 1.1 µM and inactive = higher.

Key:
Assay in all cases: growth of human tumour cells (NCI), 48 h
HCT-15 = system: HCT-15
ACHN = system: ACHN
HT-29 = system: HT-29
SK-MEL-28 = system: SK-MEL-28
SR = system: SR
SNB-75 = system: SNB-75
NCI-H23 = system: NCI-H23
UACC-62 = system: UACC-62
OVCAR-4 = system: OVCAR-4
SW-620 = system: SW-620
UACC-257 = system: UACC-257
U-251 = system: U-251
CAKI-1 = system: CAKI-1
Malme-3M = system: Malme-3M
SF-295 = system: SF-295
A498 = system: A498

Cc1cccc2c1Sc1ccccc1C2NC(=O)CCN(C)C (stereo not given)
GI50 (HCT-15): > 100 µM | GI50 (ACHN): > 100 µM (inactive) | GI50 (HT-29): > 100 µM (inactive) | GI50 (SK-MEL-28): > 100 µM (inactive) | GI50 (SR): > 100 µM (inactive) | GI50 (SNB-75): 96.4 µM (inactive) | GI50 (NCI-H23): > 100 µM (inactive) | GI50 (UACC-62): > 100 µM (inactive) | GI50 (OVCAR-4): > 100 µM (inactive) | GI50 (SW-620): > 100 µM (inactive) | GI50 (UACC-257): > 100 µM (inactive) | GI50 (U-251): > 100 µM (inactive)

COC(=O)C(=Cc1cc(OC)c(OC)c(OC)c1-c1cc2c(cc1C1(C)OCCS1)OCO2)C(=O)OC (stereo not given)
GI50 (HCT-15): 24.7 µM | GI50 (CAKI-1): 19.3 µM (inactive) | GI50 (ACHN): 55.3 µM (inactive) | GI50 (HT-29): 37 µM (inactive) | GI50 (SK-MEL-28): 33.4 µM (inactive) | GI50 (SR): 22.2 µM (inactive) | GI50 (NCI-H23): 19.8 µM (inactive) | GI50 (UACC-62): 15.5 µM (inactive) | GI50 (SW-620): 33.2 µM (inactive) | GI50 (UACC-257): 31.4 µM (inactive) | GI50 (Malme-3M): 37.3 µM (inactive) | GI50 (U-251): 45.5 µM (inactive) | GI50 (SF-295): 31.6 µM (inactive)

COc1ccc(NC(=O)/C(=N/O)C(C)=O)cc1
GI50 (HCT-15): 17.5 µM | GI50 (CAKI-1): > 100 µM (inactive) | GI50 (A498): > 100 µM (inactive) | GI50 (ACHN): > 100 µM (inactive) | GI50 (HT-29): > 100 µM (inactive) | GI50 (SK-MEL-28): > 100 µM (inactive) | GI50 (SR): > 100 µM (inactive) | GI50 (SNB-75): > 100 µM (inactive) | GI50 (NCI-H23): > 100 µM (inactive) | GI50 (UACC-62): > 100 µM (inactive) | GI50 (SW-620): 15.8 µM (inactive) | GI50 (UACC-257): > 100 µM (inactive) | GI50 (Malme-3M): > 100 µM (inactive) | GI50 (U-251): > 100 µM (inactive) | GI50 (SF-295): > 100 µM (inactive)

COc1ccc(O)cc1 [MEQUINOL]
GI50 (HCT-15): 24.5 µM | GI50 (CAKI-1): 94.4 µM (inactive) | GI50 (A498): > 100 µM (inactive) | GI50 (ACHN): 31.3 µM (inactive) | GI50 (HT-29): > 100 µM (inactive) | GI50 (SK-MEL-28): > 100 µM (inactive) | GI50 (SR): 89.7 µM (inactive) | GI50 (SNB-75): > 100 µM (inactive) | GI50 (NCI-H23): > 100 µM (inactive) | GI50 (UACC-62): 24.8 µM (inactive) | GI50 (OVCAR-4): > 100 µM (inactive) | GI50 (SW-620): > 100 µM (inactive) | GI50 (UACC-257): > 100 µM (inactive) | GI50 (Malme-3M): 77.6 µM (inactive) | GI50 (U-251): > 100 µM (inactive)

COC(=O)/C(C#N)=C1\CCC(OC)N1 (stereo not given)
GI50 (HCT-15): > 100 µM | GI50 (CAKI-1): > 100 µM (inactive) | GI50 (ACHN): > 100 µM (inactive) | GI50 (HT-29): > 100 µM (inactive) | GI50 (SK-MEL-28): > 100 µM (inactive) | GI50 (SNB-75): > 100 µM (inactive) | GI50 (NCI-H23): > 100 µM (inactive) | GI50 (UACC-62): > 100 µM (inactive) | GI50 (OVCAR-4): > 100 µM (inactive) | GI50 (SW-620): > 100 µM (inactive) | GI50 (UACC-257): > 100 µM (inactive) | GI50 (Malme-3M): > 100 µM (inactive) | GI50 (U-251): > 100 µM (inactive) | GI50 (SF-295): > 100 µM (inactive)

O=C1OC(=O)c2c1c(-c1ccccc1)nc1ccccc21
GI50 (HCT-15): > 100 µM | GI50 (CAKI-1): > 100 µM (inactive) | GI50 (A498): > 100 µM (inactive) | GI50 (HT-29): > 100 µM (inactive) | GI50 (SK-MEL-28): > 100 µM (inactive) | GI50 (SNB-75): > 100 µM (inactive) | GI50 (NCI-H23): > 100 µM (inactive) | GI50 (UACC-62): > 100 µM (inactive) | GI50 (SW-620): > 100 µM (inactive) | GI50 (UACC-257): > 100 µM (inactive) | GI50 (Malme-3M): > 100 µM (inactive) | GI50 (U-251): > 100 µM (inactive) | GI50 (SF-295): > 100 µM (inactive)

CC(C1=CC=C2[C@@H]3CCC4CC(N(C)C)CC[C@]4(C)C3CC[C@]12C)N(C)C=O (stereo not given in full)
GI50 (HCT-15): > 100 µM | GI50 (CAKI-1): > 100 µM (inactive) | GI50 (A498): 6.49 µM (inactive) | GI50 (ACHN): > 100 µM (inactive) | GI50 (HT-29): 25.3 µM (inactive) | GI50 (SK-MEL-28): > 100 µM (inactive) | GI50 (SNB-75): 52.8 µM (inactive) | GI50 (NCI-H23): > 100 µM (inactive) | GI50 (UACC-62): > 100 µM (inactive) | GI50 (OVCAR-4): > 100 µM (inactive) | GI50 (SW-620): > 100 µM (inactive) | GI50 (Malme-3M): > 100 µM (inactive) | GI50 (U-251): > 100 µM (inactive) | GI50 (SF-295): > 100 µM (inactive)

COC(=O)c1sc(=NC(=S)N2CCCCC2)sc1C(=O)OC
GI50 (HCT-15): > 100 µM | GI50 (CAKI-1): > 100 µM (inactive) | GI50 (A498): > 100 µM (inactive) | GI50 (ACHN): > 100 µM (inactive) | GI50 (SK-MEL-28): > 100 µM (inactive) | GI50 (SR): 22.9 µM (inactive) | GI50 (SNB-75): > 100 µM (inactive) | GI50 (UACC-62): > 100 µM (inactive) | GI50 (OVCAR-4): > 100 µM (inactive) | GI50 (SW-620): > 100 µM (inactive) | GI50 (UACC-257): > 100 µM (inactive) | GI50 (Malme-3M): > 100 µM (inactive) | GI50 (U-251): 32.4 µM (inactive)

COc1ccc(/C=C2\C(=O)N(C(=O)Cc3ccccc3)N=C2C)cc1OC
GI50 (HCT-15): > 100 µM | GI50 (CAKI-1): > 100 µM (inactive) | GI50 (ACHN): > 100 µM (inactive) | GI50 (HT-29): > 100 µM (inactive) | GI50 (SK-MEL-28): > 100 µM (inactive) | GI50 (SR): > 100 µM (inactive) | GI50 (SNB-75): > 100 µM (inactive) | GI50 (NCI-H23): > 100 µM (inactive) | GI50 (OVCAR-4): > 100 µM (inactive) | GI50 (SW-620): > 100 µM (inactive) | GI50 (UACC-257): > 100 µM (inactive) | GI50 (Malme-3M): > 100 µM (inactive) | GI50 (SF-295): > 100 µM (inactive)

CCC12CCCN(Cc3ccccc3)C1c1c(n(C)c3ccccc13)[C@H](C(=O)OC)C2 (stereo not given in full)
GI50 (HCT-15): 85.7 µM | GI50 (CAKI-1): 173 µM (inactive) | GI50 (ACHN): > 239 µM (inactive) | GI50 (HT-29): 32 µM (inactive) | GI50 (SK-MEL-28): > 239 µM (inactive) | GI50 (SR): > 239 µM (inactive) | GI50 (NCI-H23): > 239 µM (inactive) | GI50 (UACC-62): > 239 µM (inactive) | GI50 (SW-620): 211 µM (inactive) | GI50 (UACC-257): 110 µM (inactive) | GI50 (Malme-3M): > 239 µM (inactive) | GI50 (U-251): > 239 µM (inactive) | GI50 (SF-295): > 239 µM (inactive)
